In patent publication US8835447B2, “Method for treating androgen receptor positive cancers” (priority 2009, dated 2014):
“Also recorded” adds a separate entry of the source.

How the values were obtained:
[1] = test system: C4-2 tumors; assay: C4-2 xenograft model in nude mice; type: in vivo, mouse; conditions: 6 daily i.p. injections, 100xIC50 dose
Description: FIGS. 6A and 6B provide data showing anti-tumor activity of the selected hits in mouse models of androgen-independent PCa. FIG. 6A provides a graphical representation of data obtained from i.p. injection of the listed compounds or DMSO vehicle into nude mice carrying subcutaneous (s.c.) C4-2 tumors. Six daily injections were given starting when tumors were around 100 mm3 in size. There were 4-5 mice per group with two tumors per mouse. Asterisks (*) and number signs (#) are placed under the means of measurement in the c6 and c11 groups respectively which are statistically different from the control group by ANOVA test (>99%) B. C52 (9 mg/kg or 18 mg/kg) or DMSO vehicle was injected into the tail vein of nude mice carrying s.c. CWR22R tumors. Five daily injections were given starting when tumors were around 40 mm3 in size. There were 10 mice per group with one tumor per mouse. Asterisks (*) are placed under the means of measurement which are statistically different from the control group by ANOVA test (>99%). Error bars in both FIGS. 6A and B—standard deviation between the size of tumors within a given treatment group.
Testing of the anti-tumor effect of compounds in mice was done according to an IACUC-approved protocol in 8 week old male athymic nude mice from Harlan (Indianapolis, Ind.). For the C4-2 xenograft model, 10^6 C4-2 cells were injected subcutaneously (s.c.) in 2 sites of each mouse in 50% matrigel (BD Biosciences, Bradford, Mass.) in PBS. Upon development of visible tumors, they were measured using digital caliper. Tumor volume was calculated according to the formula: […]. Mice were injected with compounds i.p. daily for 6 days starting on the day when at least one tumor per mouse reached 100 mm^3 in size. Five mice per group were used. For the CWR22R xenograft model, CWR22R cells were inoculated (10^5 cells per inoculum) in 50% matrigel, one site per mouse. Treatment was started when the tumor grew to a size of at least 25 mm^3. Compounds were diluted in captisol (CyDex, Lenexa, Kans.) and delivered intravenously (to reduce “first pass” liver effect) once a day for 5 days. Ten mice per group were used. Mice were monitored daily and tumors were measured every other day. Mice were euthanized according to institutional regulations when the size of tumor reached 1000 mm^3. Comparison of the tumor growth in control and treated mice was done using ANOVA test.
We evaluated the potential anti-tumor effect of the hits using C4-2 and CWR22R xenograft models of androgen-independent PCa in nude mice. Groups of C4-2 tumor-bearing mice (4-5 mice per group, each with two tumors) were given 6 daily i.p. injections of compound (100×IC50 dose) or DMSO vehicle.

[2] = test system: AR-expressing PCa cell lines (LNCaP, C4-2, CWR22R); assay: Toxicity to AR-expressing PCa cell lines (colony formation / dose-dependent growth inhibition); type: cell-based, human
Protocol: Cell Colony Assay: Cells were plated in 24-well plates at a density allowing 6-7 days of exponential growth before confluency. Medium and compound was replaced every 48 hours to minimize the effect of potential compound instability. After 7 days of incubation in the presence of compound, cells were fixed and stained with methylene blue, followed by extraction of the stain with 1% SDS and spectrophotometry at 650 nm. Each assay was run in triplicate and the difference between control and compound-treated wells was determined using Student's t-test.
Dose-dependent inhibition of cell growth: Cells were plated at 1×10^3 cells per well in 96-well plates. Compounds were added in a dose range from 1 to 20000 nM in two-fold increments. Each dose was tested in triplicate. Controls were 0.1% DMSO (no effect on cell viability) and 50 μM 9-aminoacridine (complete cell death). Cells were incubated for 6 days and then fixed and stained with methylene blue, followed by extraction of the stain with 1% SDS and spectrophotometry at 650 nm. The assay was run two times and, based on the results, the inhibitory concentration of compound suppressing cell growth by 50% as compared to DMSO (IC50) was calculated by the sigmoid approximation method using CalcuSyn software (Biosoft, Chembridge, UK). Confidence intervals were calculated for each sigmoid.
This Example provides a description of the effect of the selected compounds on the growth of PCa cells. To test the toxicity of the identified AR inhibitors towards cells of different origins, we performed colony formation assays using a single dose of each compound (10 μM) on several PCa (LNCaP, C4-2, CWR22R and DU145) and two non-PCa (HT1080 and HeLa) cell lines (FIG. 2A). […] These compounds were not weaker inhibitors of AR transcriptional activity in CWR22R or C4-2 cells than compounds that inhibited growth of the cells. […]

[3] = Microsomal stability; type: in vitro ADME; conditions: 1 hour incubation with rat microsomes
Protocol: Five hit compounds, representing both the ARTIS and ARTIK categories (c6, c11, c17, c52 and c85), were selected for in vivo tests based on all of the previous assays. Compound c5 was rejected due to very low microsomal stability (<5% after 1 hour incubation with rat microsomes). The toxicity of the compounds was evaluated in a dose escalation assay in which male NIH Swiss mice (n=4) received three sequential intraperitoneal (i.p.) injections of each compound delivered in 3 day intervals. The first dose was 20-fold higher than the in vitro IC50 (20×IC50) for the compound in CWR22R cells recalculated based on mouse weight (see Example 1) and the second and third doses were 50×IC50 and 100×IC50, respectively. On the day after the last injection, half of the mice in each group were sacrificed for gross pathology examination and collection of blood for serum biochemistry assays, which include total protein, glucose, bilirubin, and creatinine levels, activity of liver enzymes, and ion concentrations. The remaining mice were sacrificed and evaluated similarly 7 days after the last compound injection. […] A minor decrease in serum glucose concentration (70-80% of control) was observed on the day after the last compound injection in almost all mice, but glucose levels were normal a week later (data not shown). […]

## CCCn1c2ccccc2c2cc(C(C)=O)ccc21 [c52]
[1]
  C4-2 tumor growth: did not
[1]; listed as C52
  C4-2 tumor growth: did not show in vivo efficacy
[2]; colony formation, 10 μM, three AR-expressing PCa cell lines
  toxicity towards AR-expressing PCa cell lines: different degrees of toxicity; also recorded: kill all PCa cells expressing AR
[2]; dose-dependent toxicity, by day 7
  degree of toxicity to PCa cells (killing vs reduced growth): kill practically all of the PCa cells in the culture by day 7
[3]
  microsomal stability, compound left: 17%
